{"source": "patent US20200369728A1", "about": "“PEPTIDOMIMETIC MACROCYCLES AND USES THEREOF” (Aileron Therapeutics, Inc., priority 2015, published 2020)", "key": {"[1]": {"tested_on": "MCF-7", "assay": "WST-1 / MTT cell proliferation assay, MCF-7 (single agents and combinations)", "type": "cell-based, human", "conditions": "for effect on MCF-7 cell proliferation: single agent, 5 days; for IC50: Homo sapiens", "quoted_text": "All media were supplemented with 10% (v/v) fetal calf serum, 100 units penicillin and 100 μg/ml streptomycin at 37° C. and 5% CO2. Prior to dosing, MCF-7 cells were switched to serum free medium and grown at 37° C. overnight.\n(§2) One day prior to assaying, cells were trypsinized, counted and seeded at pre-determined densities in 96-well plates as follows: MCF-7, 5000 cells/well/200 μl; MOLT-3, 30,000 cells/well/200 μl. […] The WST-1 variant of the MTT assay was used to measure cell viability according to the manufacturer's protocol. WST-1 is a cell-impermeable, sulfonated tetrazolium salt that can be used to examine cell viability without killing the cells.\nCombination index (CI) values were calculated using the CompuSyn software. The data were expressed as log(CI).\nCells were evaluated for viability by WST-1 assay or MTT assay 3-7 days after beginning the simultaneous treatments (FIGS. 25, 30 and 31).\nCells were evaluated for viability by WST-1 assay or MTT assay 3-7 days or 120 hrs after beginning treatment (FIGS. 24A and 35). […] Cells were evaluated for viability by WST-1 assay or MTT assay 3-7 days after beginning the simultaneous treatments (FIGS. 36 and 37)."}, "[2]": {"tested_on": "p53-pathway", "assay": "Western blot of p53-pathway, primary AML cells", "type": "cell-based", "conditions": "1.0 or 5.0 μM", "excerpt": "(§3) Lysates were subjected to SDS-PAGE and probed by Western blotting with antibodies specific to MDM2, p53, p21, and β-Actin."}, "[3]": {"tested_on": "Molm13, OCI/AML3, Molm14, HL60 and ML2 cell lines", "assay": "Apoptosis assay of AML cell lines (DAPI / Annexin-V FACS)", "type": "cell-based", "conditions": "p53 wild type AML cell lines, 1.0, 5.0 or 10.0 μM", "experimental": "(§1) Cells were probed with DAPI and a FITC-labeled anti-Annexin-V antibody. FACS analysis was performed to determine the number of viable cells and the number of cells in early apoptosis, late apoptosis and undergoing necrosis and the results were plotted."}, "[4]": {"tested_on": "Molm13, OCI/AML3, Molm14, HL60 and ML2 cell lines", "assay": "Clonogenicity assay on AML cell lines", "type": "cell-based", "conditions": "p53 wild type cell lines, 1.0 μM", "experimental": "A clonogenicity assay was then performed and the number of clonies was counted (FIG. 6)."}, "[5]": {"tested_on": "DOHH-2", "assay": "WST-1 / MTT cell viability, DOHH-2", "type": "cell-based, human", "quoted_text": "Initially, various DOHH-2 cell numbers were plated and evaluated 3-7 days later to determine the optimal number of cells to be plated and treatment duration.\n(§4) A drug combination index plot was used to assess the synergistic, additive, or antagonistic properties of each combination treatment. […] Combination index (CI) values were calculated using the CompuSyn software. The data were expressed as log(CI)."}, "[6]": {"tested_on": "MV4-11", "assay": "WST-1 / MTT cell viability, MV4-11", "quoted_text": "Initially, various MV4-11 cell numbers were plated and evaluated 3-7 days later to determine the optimal number of cells to be plated and treatment duration.\nCells were evaluated for viability by WST-1 assay or MTT assay 3-7 days after beginning treatment.\nas §4"}, "[7]": {"tested_on": "p53-pathway", "assay": "Western blot of p53-pathway, Molm13, OCI/AML3, Molm14 and ML2 cell lines", "type": "cell-based", "conditions": "Molm13, OCI/AML3, Molm14 and ML2, 1.0 μM", "experimental": "The Molm13, OCI/AML3, Molm14 and ML2 cell lines were treated with vehicle or 1.0 μM Aileron peptide (FIG. 1B)."}, "[8]": {"tested_on": "Mel-Ho (V600E)", "assay": "Combination with PLX4032 in Mel-Ho", "type": "cell-based"}, "[9]": {"tested_on": "A375", "assay": "Cell viability, A375 melanoma cell line (single agents and combinations)", "type": "cell-based, human", "conditions": "for combination effect with PLX4032 (Zelboraf, vemurafenib): B-Raf-mutant melanoma cell line A375"}, "[10]": {"tested_on": "p53", "assay": "p53 stabilization in AML cells (Western blot, dose and time)", "type": "cell-based", "conditions": "AML p53 wild type cell lines, 0.1-10.0 μM, 24, 48 or 72 hrs", "excerpt": "as §3"}, "[11]": {"tested_on": "MCF-7", "assay": "CyQUANT cell viability, MCF-7", "type": "cell-based, human", "conditions": "MCF-7, sequential treatment, 72 hrs", "experimental": "Cells were also evaluated for viability using the CyQUANT method after beginning treatment (FIGS. 78A and 79A). Cells were evaluated for viability using the CyQUANT method after beginning the simultaneous treatments (FIGS. 78B and 79B). […] The data were expressed as log(CI).\nThe anticancer activity of the combination treatment was assessed based on the order of addition of the drugs."}, "[12]": {"tested_on": "primary AML cell line", "assay": "Clonogenicity assay on primary AML cell lines", "type": "cell-based", "conditions": "0.1-1.0 μM", "experimental": "A clonogenicity assay was then performed and the number of clonies was counted."}, "[13]": {"tested_on": "MOLT-3", "assay": "WST-1 / MTT cell proliferation assay, MOLT-3", "type": "cell-based, human", "quoted_text": "All media were supplemented with 10% (v/v) fetal calf serum, 100 units penicillin and 100 μg/ml streptomycin at 37° C. and 5% CO2.\nas §2\nInitially, various MOLT-3 cell numbers were plated and evaluated 3-7 days later to determine the optimal number of cells to be plated and treatment duration.\nCells were evaluated for viability by WST-1 assay or MTT assay 3-7 days after beginning the sequential treatment (FIGS. 33 and 34).\nCells were evaluated for viability by WST-1 assay or MTT assay 3-7 days after beginning treatment with rituximab (FIGS. 68B and 69B) or romidepsin (FIGS. 71B and 72B)."}, "[14]": {"tested_on": "primary AML cell line", "assay": "Apoptosis assay on primary AML cell lines", "type": "cell-based", "conditions": "primary AML cells, 1.0, 5.0 or 10.0 μM", "experimental": "as §1"}, "[15]": {"tested_on": "p53-pathway", "assay": "mRNA expression of p21, MDM2, Puma, Bax, Gadd45a in Molm13 and Oci/AML3", "type": "cell-based", "conditions": "Molm13 and Oci/AML3, 0.1-10.0 μM", "description": "Expression levels were normalized to GAPDH mRNA expression levels."}, "[16]": {"assay": "FIGURE 19", "description": "Table printed on a drawing sheet, FIGURE 19\nFirst reader's note: The table is an inset in a plot of solubility against the number of amino acids C-terminal to the cross-link."}, "[17]": {"tested_on": "SJSA-1", "assay": "Cell viability assay (MTT), SJSA-1"}, "[18]": {"tested_on": "MCF-7 breast cancer xenograft", "assay": "MCF-7 breast cancer xenograft study, tumor growth inhibition", "conditions": "30 mg/kg three times per week iv", "quoted_text": "This formulation was prepared once for the duration of the study.\nEach group was assigned to a different treatment regimen.\nDuring the dosing period the mice were weighed and tumors measured 1-2 times per week."}, "[19]": {"assay": "MCF-7 breast cancer xenograft study, body weight and deaths", "type": "in vivo, mice", "description": "A negative control stapled peptide."}, "[20]": {"conditions": "DOHH-2, sequential treatment, 72 hrs"}, "[21]": {"conditions": "MV4-11, sequential treatment, 72 hrs"}}, "note": "Entries after “also recorded” stand apart in the source; their conditions may differ. Read-outs that look alike come from different tables or passages of the source."}
{"smiles": "CO[C@H]1C[C@@H]2CC[C@@H](C)[C@@](O)(O2)C(=O)C(=O)N2CCCC[C@H]2C(=O)O[C@H]([C@H](C)C[C@@H]2CC[C@@H](OCCO)[C@H](OC)C2)CC(=O)[C@H](C)/C=C(\\C)[C@@H](O)[C@@H](OC)C(=O)[C@H](C)C[C@H](C)/C=C/C=C/C=C/1C", "note": "[everolimus, reference compound]", "values": [{"measurement": "effect on MCF-7 cell proliferation", "setting": "[1]", "result": "inhibited MCF-7 breast cancer cell proliferation with limited cell killing as a single agent"}]}
{"smiles": "CC(=O)N[C@@H](CC(C)C)C(=O)N[C@H](C(=O)N[C@@H](Cc1ccccc1)C(=O)N[C@]1(C)CCCCCCC=CCCC[C@@](C)(C(=O)N[C@@H](C)C(=O)N[C@@H](C)C(=O)N[C@@H](C)C(=O)N[C@@H](C)C(=O)N[C@@H](C)C(=O)N[C@H](C)C(N)=O)NC(=O)[C@H](CC(C)C)NC(=O)[C@H](CCC(N)=O)NC(=O)[C@H](C)NC(=O)[C@H](Cc2c[nH]c3ccccc23)NC(=O)[C@H](Cc2ccc(O)cc2)NC(=O)[C@H](CCC(=O)O)NC1=O)[C@@H](C)O", "note": "[Aileron peptide 1]", "values": [{"measurement": "activation of the p53-pathway", "setting": "[2]", "result": "activates the p53-pathway"}, {"measurement": "apoptotic cell death", "setting": "[3]", "result": "induces apoptotic cell death"}, {"measurement": "clonogenic capacity", "setting": "[4]", "result": "inhibited their clonogenic capacity"}, {"measurement": "combination effect of AP1 with rituximab", "setting": "[5]; DOHH-2 (figure legends), listed as AP1", "result": "complementary in vitro anticancer activity; also recorded: additive or better complimentarity"}, {"measurement": "order of addition: effect on cell growth, AP1 and CTX", "setting": "[5]; [20]", "result": "suppressed DOHH-2 cell growth with or without CTX"}, {"measurement": "order of addition: effect on cell growth, AP1 and VCR", "setting": "[5]; [20]", "result": "suppressed DOHH-2 cell growth with or without VCR"}, {"measurement": "combination effect of AP1 with CTX", "setting": "[5]; DOHH-2, listed as AP1", "result": "complementary in vitro anticancer activity; also recorded: synergistic; also recorded: additive or better complimentarity"}, {"measurement": "combination effect of AP1 with VCR", "setting": "[5]; DOHH-2, listed as AP1", "result": "complementary in vitro anticancer activity; also recorded: mostly synergistic; also recorded: additive or better complimentarity"}, {"measurement": "EC50", "setting": "[5]; single agent, read-out: EC50 on DOHH-2 cells", "result": 60, "unit": "nM"}, {"measurement": "order of addition: effect on cell growth, AP1 and Ara-C", "setting": "[6]; [21]", "result": "suppressed MV4-11 cell growth with or without Ara-C"}, {"measurement": "order of addition: effect on cell growth, AP1 and azacitidine", "setting": "[6]; [21]", "result": "suppressed MV4-11 cell growth with or without azacitidine"}, {"measurement": "order of addition: effect on cell growth, AP1 and decitabine", "setting": "[6]; [21]", "result": "suppressed MV4-11 cell growth with or without decitabine"}, {"measurement": "order of addition: effect on cell growth, AP1 and midostaurin", "setting": "[6]; [21]", "result": "suppressed MV4-11 cell growth with or without midostaurin"}, {"measurement": "combination effect of AP1 with Ara-C", "setting": "[6]; MV4-11, listed as AP1", "result": "complementary in vitro anticancer activity; also recorded: mostly additive with some degree of synergy; also recorded: additive or better complimentarity"}, {"measurement": "combination effect of AP1 with azacitidine", "setting": "[6]; MV4-11, listed as AP1", "result": "complementary in vitro anticancer activity; also recorded: mostly additive with some synergy; also recorded: additive or better complimentarity"}, {"measurement": "combination effect of AP1 with decitabine", "setting": "[6]; MV4-11, listed as AP1", "result": "complementary in vitro anticancer activity; also recorded: mostly additive; also recorded: additive or better complimentarity"}, {"measurement": "combination effect of AP1 with midostaurin", "setting": "[6]; MV4-11, listed as AP1", "result": "complementary in vitro anticancer activity; also recorded: mostly synergistic; also recorded: additive or better complimentarity"}, {"measurement": "activation of the p53-pathway", "setting": "[7]", "result": "activates the p53-pathway"}, {"measurement": "combination effect with PLX4032 (Zelboraf)", "setting": "[8]", "result": "synergy"}, {"measurement": "combination effect with PLX4032 (Zelboraf, vemurafenib)", "setting": "[9]", "result": "synergy"}, {"measurement": "combination effect with PLX4032 (Zelboraf, vemurafenib)", "setting": "[9]; listed as AP1", "result": "additive or better complimentarity"}, {"measurement": "EC50", "setting": "[9]; single agent, read-out: EC50 on A375 cells", "result": 70, "unit": "nM"}, {"measurement": "p53 stabilization", "setting": "[10]", "result": "stabilizes p53 in a time and dose dependant manner"}, {"measurement": "order of addition: effect on cell growth, AP1 and palbociclib", "setting": "[11]", "result": "suppressed MCF-7 cell growth with or without palbociclib"}, {"measurement": "clonogenic capacity", "setting": "[12]", "result": "inhibited its clonogenic capacity to a higher extent"}, {"measurement": "combination effect of AP1 with romidepsin", "setting": "[13]", "result": "enhances Aileron peptide 1 inhibition of cancer cell proliferation and cell killing"}, {"measurement": "combination effect of AP1 with romidepsin", "setting": "[13]; listed as AP1", "result": "complementary in vitro anticancer activity; also recorded: mostly additive complimentarity"}, {"measurement": "apoptotic cell death", "setting": "[14]", "result": "induces apoptotic cell death"}, {"measurement": "activation of the p53-pathway (mRNA normalized to GAPDH)", "setting": "[15]", "result": "activates the p53-pathway"}]}
{"smiles": "C[C@]12CC[C@@H]3c4ccc(O)cc4C[C@@H](CCCCCCCCC[S+]([O-])CCCC(F)(F)C(F)(F)F)[C@H]3[C@@H]1CC[C@@H]2O", "note": "(stereo partly shown) [fulvestrant, reference compound]", "values": [{"measurement": "IC50", "setting": "[1]; MCF7, FUL + 0.4 μM Aileron peptide 1, MCF-7", "result": 0.261, "unit": "nM"}, {"measurement": "IC50", "setting": "[1]; MCF7, FUL alone, MCF-7", "result": 0.768, "unit": "nM"}, {"measurement": "effect on MCF-7 cell proliferation", "setting": "[1]", "result": "inhibited MCF-7 breast cancer cell proliferation with limited cell killing as a single agent"}]}
{"smiles": "CC(=O)N[C@@H](CC(C)C)C(=O)N[C@H](C(=O)N[C@@H](Cc1ccccc1)C(=O)N[C@]1(C)CCCCCCC=CCCC[C@@](C)(C(=O)N[C@@H](C)C(=O)N[C@@H](C)C(=O)N[C@@H](C)C(=O)N[C@@H](C)C(=O)N[C@@H](C)C(=O)N[C@@H](C)C(=O)N[C@H](C)C(N)=O)NC(=O)[C@H](CC(C)C)NC(=O)[C@H](CCC(N)=O)NC(=O)[C@H](C)NC(=O)[C@H](Cc2c[nH]c3ccccc23)NC(=O)[C@H](Cc2ccc(O)cc2)NC(=O)[C@H](C)NC1=O)[C@@H](C)O", "note": "[SP316]", "values": [{"measurement": "Solubility", "setting": "[16]", "result": 5000, "unit": "µg/mL"}]}
{"smiles": "CC(=O)N[C@@H](CC(C)C)C(=O)N[C@H](C(=O)N[C@@H](C)C(=O)N[C@]1(C)CCCCCCC=CCCC[C@@](C)(C(=O)N[C@@H](CO)C(=O)N[C@@H](C)C(=O)N[C@@H](C)C(N)=O)NC(=O)[C@H](CC2CCC2)NC(=O)[C@H](CCC(N)=O)NC(=O)[C@H](C)NC(=O)[C@H](Cc2c[nH]c3ccccc23)NC(=O)[C@H](Cc2ccc(O)cc2)NC(=O)[C@H](CCC(=O)O)NC1=O)[C@@H](C)O", "note": "[SP252]", "values": [{"measurement": "activity in the SJSA-1 in vitro viability assay", "setting": "[17]", "result": "no activity"}, {"measurement": "TGI by Day 32", "setting": "[18]", "result": 88, "unit": "%"}, {"measurement": "% BW Change", "setting": "[19]; 30 mg/kg 3x/wk iv, Days 18-39", "result": "+3.3%"}, {"measurement": "No. with ≥10% BW Loss", "setting": "[19]; 30 mg/kg 3x/wk iv, Days 18-39", "result": "0/10"}, {"measurement": "No. with ≥20% BW Loss or death", "setting": "[19]; 30 mg/kg 3x/wk iv, Days 18-39", "result": "0/10"}, {"measurement": "tolerability of dosing regimen", "setting": "[19]; 30 mg/kg three times per week iv", "result": "well-tolerated with no body weight loss or deaths noted"}]}
